Assay results reported in patent publication US7776903B2, “Pharmaceutical preparations containing substituted 2,5-diaminomethyl-1H-pyrroles” (priority 2002, dated 2010).
pKi: −log10 of the molar value. Where two headings read alike, the source gives them in different places.

What was measured:
5-HT uptake = biological target: T1, 5-HT uptake (Rattus norvegicus, UniProt P31652); test: 5-HT uptake inhibition in rat brain synaptosomes (medulla and pons); assay type: biochemical; details: conc. 10 (unit not given), [3H]-5-HT, 5 minutes
T1 construct: Synaptosomes from rat brain regions were freshly isolated; from tissue; host or cells: rat brain synaptosomes (medulla and pons)
T1 sequence (P31652 whole entry): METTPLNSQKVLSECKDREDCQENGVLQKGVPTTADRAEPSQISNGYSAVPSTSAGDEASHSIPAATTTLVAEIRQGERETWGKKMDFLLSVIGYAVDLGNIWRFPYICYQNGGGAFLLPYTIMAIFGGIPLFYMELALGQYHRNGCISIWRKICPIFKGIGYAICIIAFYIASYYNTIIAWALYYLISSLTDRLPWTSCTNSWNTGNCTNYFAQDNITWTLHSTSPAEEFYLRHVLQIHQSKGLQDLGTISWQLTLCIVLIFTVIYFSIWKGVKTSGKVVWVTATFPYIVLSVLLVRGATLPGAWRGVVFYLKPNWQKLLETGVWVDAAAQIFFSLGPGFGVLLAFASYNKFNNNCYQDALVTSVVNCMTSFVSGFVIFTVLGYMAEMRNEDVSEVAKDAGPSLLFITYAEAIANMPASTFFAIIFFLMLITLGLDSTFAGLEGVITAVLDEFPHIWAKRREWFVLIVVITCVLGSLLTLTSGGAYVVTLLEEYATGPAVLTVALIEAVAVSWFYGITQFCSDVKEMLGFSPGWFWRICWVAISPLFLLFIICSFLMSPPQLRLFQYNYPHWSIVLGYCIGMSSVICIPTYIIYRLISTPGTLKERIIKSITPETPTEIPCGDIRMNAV
Text: (§1) c) Method for Determining Noradrenalin and the 5-HT Uptake Inhibition:
(§2) Synaptosomes from rat brain regions were freshly isolated for in vitro studies, as described in the publication “The isolation of nerve endings from brain” by E. G. Gray and V. P. Whittaker, J. Anatomy 96, pages 79-88, 1962. The corresponding literature description is hereby introduced as a reference and is deemed to be part of the disclosure.
(§3) The tissue (hypothalamus for the determination of noradrenalin uptake inhibition and medulla and pons for the determination of 5-HT uptake inhibition) was homogenised in ice-cooled 0.32 M sucrose (100 mg of tissue/1 mL) in a glass homogeniser with teflon pestle using five complete up and down strokes at 840 revolutions/minute.
(§4) The homogenate was centrifuged at 4° C. for 10 minutes at 1000 g. After subsequent centrifugation at 17000 g for 55 minutes, the synaptosomes (P2 fraction) were obtained, which were resuspended in 0.32 M glucose (0.5 mL/100 mg of original weight).
(§5) The particular uptake was measured in a 96-well microtitre plate. The volume was 250 μl and the incubation proceeded at room temperature (approx. 20-25° C.) under an O2 atmosphere.
(§6) The incubation time was 7.5 minutes for [^3H]-NA and 5 minutes for [^3H]-5-HT. The 96 samples were then filtered through a Unifilter GF/B® microtitre plate (Packard) and washed with […] of incubated buffer using a “Brabdel MPXR1-96T Cell-Harvester”. The Unifilter GF/B plate was dried for 1 hour at 55° C. The plate was then sealed with a Back seal® (Packard) and 35 μl of scintillation fluid were added per well (Ultima gold®, Packard). After sealing with a top seal® (Packard) and establishment of equilibrium (around 5 hours), radioactivity was determined in a “Trilux 1450 Microbeta” (Wallac).
(§7) The quantity of protein used in the above determination corresponded to the values known from the literature, as for example described in “Protein measurement with the folin phenol reagent”, Lowry et al., J. Biol. Chem., 193, 265-275, 1951. A detailed description of the method may also be found in the literature, for example in M. Ch. Frink, H.-H. Hennies, W. Engelberger, M. Haurand and B. Wilffert (1996) Arzneim.-Forsch./Drug Res. 46 (III), 11, 1029-1036. The corresponding literature descriptions are hereby introduced as a reference and are deemed to be part of the disclosure.

human μ opiate receptor = human μ opiate receptor (Homo sapiens, UniProt P35372); test: Human μ opiate receptor binding assay with [3H]-naloxone, CHO-K1 membrane preparation; details: for inhibition at 1 µM: read-out: Human ORm Nal inhibition [%]
Sequence of human μ opiate receptor (P35372 whole entry): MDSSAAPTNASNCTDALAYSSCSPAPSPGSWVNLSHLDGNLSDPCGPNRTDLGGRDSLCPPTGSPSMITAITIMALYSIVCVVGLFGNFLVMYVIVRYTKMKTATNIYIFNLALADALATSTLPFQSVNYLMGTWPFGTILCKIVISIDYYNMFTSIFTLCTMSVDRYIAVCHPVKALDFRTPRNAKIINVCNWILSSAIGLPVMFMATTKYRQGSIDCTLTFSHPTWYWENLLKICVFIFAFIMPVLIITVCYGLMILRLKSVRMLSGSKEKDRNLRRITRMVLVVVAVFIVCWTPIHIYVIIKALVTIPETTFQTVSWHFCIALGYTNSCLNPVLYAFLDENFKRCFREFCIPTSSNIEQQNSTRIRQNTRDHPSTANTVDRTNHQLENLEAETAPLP
Description: b) Method for Determining Affinity for the Human μ opiate receptor
Receptor affinity for the human μ opiate receptor is determined in a homogeneous batch in microtitre plates. To this end, dilution series of the particular substituted 2,5-diaminomethyl-1H-pyrrole to be tested were incubated at room temperature for 90 minutes in a total volume of 250 μl with a receptor membrane preparation (15-40 μg of protein per 250 μl of incubation batch) of CHO-K1 cells, which express the human μ opiate receptor (RB-HOM receptor membrane preparation from NEN, Zaventem, Belgium) in the presence of 1 nmol/l of the radioactive ligand [^3H]-naloxone (NET719, from NEN, Zaventem, Belgium) and of 1 mg of WGA-SPA beads (wheat germ agglutinin SPA beads from Amersham/Pharmacia, Freiburg, Germany). The incubation buffer used is 50 mmol/l tris-HCl supplemented with 0.05 wt. % of sodium azide and with 0.06 wt. % of bovine serum albumin. 25 μmol/l of naloxone were additionally added to determine nonspecific binding. Once the ninety minute incubation time had elapsed, the microtitre plates were centrifuged off for 20 minutes at 1000 g and the radioactivity measured in a β-Counter (Microbeta-Trilux, from PerkinElmer Wallac, Freiburg, Germany. The percentage displacement of the radioactive ligand from its binding to the human μ opiate receptor was determined at a concentration of the substances to be tested of 1 μmol/l and stated as percentage inhibition of specific binding. On the basis of the percentage displacement by different concentrations of the compounds to be tested of the general formula I, IC50 inhibition concentrations which bring about 50% displacement of the radioactive ligand were calculated. Ki values for the test substances were obtained by conversion using the Cheng-Prusoff equation.

NA transporter = biological target: T2, NA transporter (Rattus norvegicus, UniProt Q63380); test: Noradrenalin uptake inhibition in rat brain synaptosomes (hypothalamus); assay type: biochemical; details: conc. 10 (unit not given), [3H]-NA, 7.5 minutes
T2 construct: Synaptosomes from rat brain regions were freshly isolated; from tissue; host or cells: rat brain synaptosomes (hypothalamus)
T2 sequence (Q63380 1-617): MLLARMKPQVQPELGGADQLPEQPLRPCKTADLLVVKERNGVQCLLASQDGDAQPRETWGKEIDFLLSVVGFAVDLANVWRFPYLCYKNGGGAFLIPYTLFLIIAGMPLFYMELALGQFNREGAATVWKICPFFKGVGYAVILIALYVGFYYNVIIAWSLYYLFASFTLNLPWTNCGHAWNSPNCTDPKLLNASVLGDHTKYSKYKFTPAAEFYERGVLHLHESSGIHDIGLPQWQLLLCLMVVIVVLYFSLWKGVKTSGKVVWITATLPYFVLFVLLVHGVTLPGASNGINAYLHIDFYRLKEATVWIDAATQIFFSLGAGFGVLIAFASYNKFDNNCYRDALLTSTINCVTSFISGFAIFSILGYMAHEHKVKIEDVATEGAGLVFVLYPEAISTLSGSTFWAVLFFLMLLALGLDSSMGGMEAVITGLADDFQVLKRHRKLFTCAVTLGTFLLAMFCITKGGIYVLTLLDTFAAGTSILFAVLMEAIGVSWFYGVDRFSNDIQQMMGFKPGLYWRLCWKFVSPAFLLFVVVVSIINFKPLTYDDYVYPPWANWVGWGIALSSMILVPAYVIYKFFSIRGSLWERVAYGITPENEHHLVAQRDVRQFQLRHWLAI
Text: as §1, §2, §3, §4, §5, §6
The following characteristics were determined for the NA transporter: NA uptake: Km=0.32±0.11 μM
as §7

ORL-1 receptor = biological target: T3, ORL-1 receptor (Homo sapiens, UniProt P41146); test: ORL-1 receptor binding assay with 3H-nociceptin/Orphanin FQ, membranes of recombinant CHO-ORL1 cells; details: 3H-nociceptin/Orphanin FQ 0.5 nM
T3 construct: expressed in transfected cells; host or cells: CHO (CHO-ORL1)
T3 sequence (P41146 whole entry): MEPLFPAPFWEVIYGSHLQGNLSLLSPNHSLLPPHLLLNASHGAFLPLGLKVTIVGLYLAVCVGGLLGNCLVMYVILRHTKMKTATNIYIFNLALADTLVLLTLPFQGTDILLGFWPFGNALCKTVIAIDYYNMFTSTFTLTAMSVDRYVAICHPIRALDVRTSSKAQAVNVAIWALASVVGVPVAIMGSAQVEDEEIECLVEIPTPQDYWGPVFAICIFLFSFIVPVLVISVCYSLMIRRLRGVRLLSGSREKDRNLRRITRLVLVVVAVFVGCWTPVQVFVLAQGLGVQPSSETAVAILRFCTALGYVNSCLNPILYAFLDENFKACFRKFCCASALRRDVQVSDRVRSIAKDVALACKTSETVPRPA
Description: a) Method for Determining Affinity for the ORL-1 Receptor
The affinity of the particular substituted 2,5-diaminomethyl-1H-pyrrole of the general formula I for the ORL-1 receptor was determined in a receptor binding assay with ^3H-nociceptin/Orphanin FQ with membranes of recombinant CHO-ORL1 cells, as described by Ardati et al. in Mol. Pharmacol., 51, 1997, pages 816-824. The corresponding literature description is hereby introduced as a reference and is deemed to be part of the disclosure.
The concentration of ^3H-nociceptin/Orphanin FQ in these tests was 0.5 nM. The binding assays were in each case performed with 20 μg of membrane protein per 200 μl batch in 50 mM Hepes, pH 7.4, 10 mM MgCl2 and 1 mM EDTA. Binding to the ORL1 receptor was determined using 1 mg portions of WGA-SPA Beads (Amersham-Pharmacia, Freiburg, Germany), by one hour's incubation of the batch at room temperature (approx. 20-25° C.) and subsequent measurement in a Trilux scintillation counter (Wallac, Finland).

[1] = [3H]-naloxone, from IC50 by Cheng-Prusoff equation, read-out: Human ORm Nal Ki

Compound | Rat 5-HT uptake inhibition [%] conc. 10 (5-HT uptake) [%] | pKi (human μ opiate receptor) | inhibition at 1 µM (human μ opiate receptor) [%] | pKi (human μ opiate receptor; [1]) | Rat noradrenalin uptake inhibition [%], conc. 10 (NA transporter) [%] | pKi (ORL-1 receptor) | Human ORL1 inhibition [%] (ORL-1 receptor; test concentration not given)
CCOC(=O)C(c1ccc(CN(CC)CC)n1C)N1CCOCC1.Cl.Cl (stereo not shown) [Example 10, (5-Diethylaminomethyl-1-methyl-1H-pyrrol-2-yl)-morpholin-4-yl-acetic acid ethyl ester dihydrochloride] | 28 | 7.15 | 84 |  |  |  | 
CN(C)C(c1ccc(Br)cc1)c1ccc(CN2CCCCC2)n1C.Cl.Cl (stereo not shown) [Example 5, [(4-Bromo-phenyl)-(1-methyl-5-piperidin-1-ylmethyl-1H-pyrrol-2-yl)-methyl]-dimethyl-amine dihydrochloride] | 39 |  | 52 | 6.07 | 91 |  | 
COc1ccccc1C(c1ccc(CN2CCCCC2)n1C)N(C)C.Cl.Cl (stereo not shown) [Example 1, [(2-Methoxyphenyl)-(1-methyl-5-piperidin-1-ylmethyl-1H-pyrrol-2-yl)-methyl]-dimethyl-amine dihydrochloride] | 77 |  |  |  | 63 |  | 
CCN(CC)Cc1ccc(C(c2ccccc2)N(C)C)n1C.Cl.Cl (stereo not shown) [Example 7, [5-(Dimethylamino-phenyl-methyl)-1-methyl-1H-pyrrol-2-ylmethyl]-diethyl-amine dihydrochloride] | 44 |  | 50 |  | 52 | 6.38 | 42
CCOC(=O)C(c1ccc(CN2CCCCC2)n1C)N1CCCCC1 (stereo not shown) [Example 8, (1-Methyl-5-piperidin-1-ylmethyl-1H-pyrrol-2-yl)-piperidin-1-yl-acetic acid ethyl ester drochloride] |  |  | 69 | 6.66 | 33 |  | 
COc1ccccc1C(c1ccc(CN2CCCC2)n1C)N(C)C.Cl.Cl (stereo not shown) [Example 2, [(2-Methoxyphenyl)-(1-methyl-5-pyrrolidin-1-ylmethyl-1H-pyrrol-2-yl)-methyl]-dimethyl-amine dihydrochloride] | 76 |  | 25 |  | 65 |  | 
CCOC(=O)C(c1ccc(CN2CCOCC2)n1C)N1CCCC1.Cl.Cl (stereo not shown) [Example 13, (1-Methyl-5-morpholin-4-ylmethyl-1H-pyrrol-2-yl)-pyrrolidin-1-yl-acetic acid ethyl ester dihydrochloride] | 28 |  |  |  |  |  | 
CN(C)C(c1ccc(F)cc1)c1ccc(CN2CCOCC2)n1C.Cl.Cl (stereo not shown) [Example 6, [(4-Fluoro-phenyl)-(1-methyl-5-morpholin-4-ylmethyl-1H-pyrrol-2-yl)-methyl]-dimethyl-amine dihydrochloride] | 53 |  | 21 | 6.30 | 42 |  | 
CN(C)C(c1ccccc1Br)c1ccc(CN2CCCCC2)n1C.Cl.Cl (stereo not shown) [Example 4, [(2-Bromo-phenyl)-(1-methyl-5-piperidin-1-ylmethyl-1H-pyrrol-2-yl)-methyl]-dimethyl-amine dihydrochloride] | 57 |  |  |  |  |  | 
CCOC(=O)C(c1ccc(CN2CCCCC2)n1C)N1CCOCC1.Cl.Cl (stereo not shown) [Example 9, (1-Methyl-5-piperidin-1-ylmethyl-1H-pyrrol-2-yl)-morpholin-4-yl-acetic acid ethyl eastr dihydrochloride] | 26 |  |  |  |  |  | 
Cc1ccccc1C(c1ccc(CN2CCCCC2)n1C)N(C)C.Cl.Cl (stereo not shown) [Example 3, Dimethyl-[(1-methyl-5-piperidin-1-ylmethyl-1H-pyrrol-2-yl)-o-tolyl-methyl]-amine dihydrochloride] | 30 |  |  |  |  |  | 
